According to patent publication US5468728A, “Use of orally absorbable motilin preparations to enhance motility of digestive tract” (Sanwa Kagaku Kenkyusho Co., Ltd., priority 1991, dated 1995):

Test system: intestinal tracts
Experiment: Contraction of the intestinal tracts in dogs by the balloon method, intravenous and nasal administration
Assay type: in vivo
From the text: L-leucine-13-motilin (A) and L-leucine-13-motilin-homoserin (B) were administrated to dogs through an intravenous route ([…]) by the ballon method to determine their activities on the contraction of the intestinal tracts, and the action of the surface active agent on promoting the absorption of the active substances administrated through a nasal administration was estimated in terms of percentage relative to the activity--100%-- of L-leucine-13-motilin administrated through an intravenous route on the contraction.
L-leucine-13-motilin-homoserine and L-leucine-13-motilin were each dissolved in purified water to prepare an aqueous solution, which was then aseptically poured into a vial in such a way that it contained the active substance in an amount of 1 mg when calculated as polypeptide. Each vial was finally sealed together and freeze-dried. For use, this vial is dissolved in physiological saline for injection.

[1] = Intravenous Administration (2.0 μg/kg/hr)
[2] = Nasal Administration (100 μg/kg/hr), Control = injection preparation without surface active agent

Substance | activity on the contraction of the intestinal tracts, percentage relative to L-leucine-13-motilin intravenous (100%) [1] [%] | activity on the contraction of the intestinal tracts, percentage relative to L-leucine-13-motilin intravenous (100%) [2]
L-leucine-13-motilin [A] | 100 ± 0 | No activity found
L-leucine-13-motilin-homoserine [B] | 115 ± 5 | ≤ 30%
